According to patent publication US8071625B2, “Certain chemical entities, compositions, and methods” (Cytokinetics, Inc., priority 2006, dated 2011):

biological target: T1, crosslinked smooth muscle actomyosin (chicken gizzard smooth muscle myosin subfragment-1 crosslinked to cardiac or skeletal actin) (Gallus gallus, UniProt P10587); assay: Lead optimization pyruvate kinase/horseradish peroxidase/pyruvate oxidase-coupled ATPase assay (compound dose response); assay type: biochemical; settings: read-out: IC50 Arithmetic Mean
T1 construct: chicken gizzard smooth muscle myosin subfragment-1; from tissue; host or cells: chicken gizzard
Summary of the method: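 IC50 is the midpoint of a 4-parameter dose–response fit of Amplex Red fluorescence (480/615 nm). Buffer was 12 mM potassium PIPES pH 7.00 at 22 °C with 100 mM KCl, 2 mM MgCl2, 0.15 mM ATP and 2 mM phosphate, with PK/pyruvate oxidase/HRP coupling. Enzyme: smooth muscle myosin S1 crosslinked to cardiac or skeletal actin, dosed empirically by activity.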

Point of comparison: `Cc1c(Cl)cccc1NC(=O)OCC1(C(=O)NCc2ccccc2Cl)CCOCC1` [(4-{[N-(3-chloro-2-methylphenyl)carbamoyloxy]methyl}(2H-3,4,5,6-tetrahydropyran-4-yl))-N-[(2-chlorophenyl)methyl]carboxamide], IC50 16200 nM. Against it:
- Cc1ccc(NC(=O)OCC2(C(=O)NCc3ccccc3Cl)CCOCC2)cc1C [(4-{[N-(3,4-dimethylphenyl)carbamoyloxy]methyl}(2H-3,4,5,6-tetrahydropyran-4-yl))-N-[(2-chlorophenyl)methyl]carboxamide] — 6.9-fold lower, 2340 nM
- O=C(Nc1cc(Cl)cc(Cl)c1)OCC1(C(=O)NCc2ccccc2Cl)CCOCC1 [(4-{[N-(3,5-dichlorophenyl)carbamoyloxy]methyl}(2H-3,4,5,6-tetrahydropyran-4-yl))-N-[(2-chlorophenyl)methyl]carboxamide] — within 1.5-fold, 18300 nM
- Cc1ccc(NC(=O)OCC2(C(=O)NCc3ccccc3Cl)CCOCC2)cc1Cl [(4-{[N-(3-chloro-4-methylphenyl)carbamoyloxy]methyl}(2H-3,4,5,6-tetrahydropyran-4-yl))-N-[(2-chlorophenyl)methyl]carboxamide] — 8.3-fold lower, 1960 nM
- CC(=O)c1ccc(NC(=O)OCC2(C(=O)NCc3ccccc3Cl)CCOCC2)cc1 [(4-{[N-(4-acetylphenyl)carbamoyloxy]methyl}(2H-3,4,5,6-tetrahydropyran-4-yl))-N-[(2-chlorophenyl)methyl]carboxamide] — 3.8-fold lower, 4270 nM
- CC(=O)c1ccc(NC(=O)OCC2(C(=O)NCc3ccccc3Cl)CCN(C(=O)CN)CC2)cc1 [(4-{[N-(4-acetylphenyl)carbamoyloxy]methyl}-1-(2-aminoacetyl)(4-piperidyl))-N-[(2-chlorophenyl)methyl]carboxamide] — 14-fold lower, 1190 nM
- O=C(Nc1ccc(Cl)cc1)OCC1(C(=O)NCc2ccccc2Cl)CCOCC1 [(4-{[N-(4-chlorophenyl)carbamoyloxy]methyl}(2H-3,4,5,6-tetrahydropyran-4-yl))-N-[(2-chlorophenyl)methyl]carboxamide] — 5.8-fold lower, 2780 nM
- CCc1ccc(NC(=O)N[C@H]2CCCC[C@@H]2C(=O)NCc2ccccc2Cl)cc1 [((1S,2S)-2-{[(4-ethylphenyl)amino]carbonylamino}cyclohexyl)-N-[(2-chlorophenyl)methyl]carboxamide] — within 1.5-fold, 16800 nM
- CCc1ccc(NC(=O)OC[C@@H]2CCCN2C(=O)NCc2ccccc2Cl)cc1 [((2S)-2-{[N-(4-ethylphenyl)carbamoyloxy]methyl}pyrrolidinyl)-N-[(2-chlorophenyl)methyl]carboxamide] — 88-fold lower, 185 nM
- CCc1ccc(NC(=O)OC[C@@H]2C[C@@H](N)CN2C(=O)NCc2ccccc2Cl)cc1 [((5S,3R)-3-amino-5-{[N-(4-ethylphenyl)carbamoyloxy]methyl}pyrrolidinyl)-N-[(2-chlorophenyl)methyl]carboxamide] — 11-fold lower, 1440 nM
- CCc1ccc(NC(=O)N(CCNC(=O)OC(C)(C)C)CC2(C(=O)NCc3ccccc3Cl)CCN(C(=O)CNC(=O)OC(C)(C)C)CC2)cc1 [(tert-butoxy)-N-(2-{N-[(1-{2-[(tert-butoxy)carbonylamino]acetyl}-4-{N-[(2-chlorophenyl)methyl]carbamoyl}(4-piperidyl))methyl][(4-ethylphenyl)amino]carbonylamino}ethyl)carboxamide] — within 1.5-fold, 19500 nM
- CCc1ccc(NC(=O)OCC2(C(=O)NCc3ccccc3Br)CCN(C(=O)CN(C)C(=O)OC(C)(C)C)CC2)cc1 [(tert-butoxy)-N-[2-(4-{N-[(2-bromophenyl)methyl]carbamoyl}-4-{[N-(4-ethylphenyl)carbamoyloxy]methyl}piperidyl)-2-oxoethyl]-N-methylcarboxamide] — 5.7-fold lower, 2860 nM
- CCc1ccc(NC(=O)OCC2(C(=O)NCc3ccccc3Cl)CCN(C(=O)C(CO)NC(=O)OC(C)(C)C)CC2)cc1 (stereo not drawn) [(tert-butoxy)-N-[2-(4-{N-[(2-chlorophenyl)methyl]carbamoyl}-4-{[N-(4-ethylphenyl)carbamoyloxy]methyl}piperidyl)-1-(hydroxymethyl)-2-oxoethyl]carboxamide] — 25-fold lower, 661 nM
- CCc1ccc(NC(=O)OCC2(C(=O)NCc3ccccc3Cl)CCN(C(=O)C(C)N(C)C(=O)OC(C)(C)C)CC2)cc1 (stereo not drawn) [(tert-butoxy)-N-[2-(4-{N-[(2-chlorophenyl)methyl]carbamoyl}-4-{[N-(4-ethylphenyl)carbamoyloxy]methyl}piperidyl)-1-methyl-2-oxoethyl]-N-methylcarboxamide] — 2.6-fold lower, 6180 nM
- CCc1ccc(NC(=O)OCC2(C(=O)NCc3ccccc3Cl)CCN(C(=O)CNC(=O)OC(C)(C)C)CC2)cc1 [(tert-butoxy)-N-[2-(4-{N-[(2-chlorophenyl)methyl]carbamoyl}-4-{[N-(4-ethylphenyl)carbamoyloxy]methyl}piperidyl)-2-oxoethyl]carboxamide] — 18-fold lower, 919 nM
- CCc1ccc(NC(=O)OCC2(C(=O)NCc3ccccc3)CCN(C(=O)CNC(=O)OC(C)(C)C)CC2)cc1 [(tert-butoxy)-N-[2-(4-{[N-(4-ethylphenyl)carbamoyloxy]methyl}-4-[N-benzylcarbamoyl]piperidyl)-2-oxoethyl]carboxamide] — within 1.5-fold, 11100 nM
- CCc1ccc(NC(=O)OCC2(C(=O)NCc3ccccc3F)CCN(C(=O)CNC(=O)OC(C)(C)C)CC2)cc1 [(tert-butoxy)-N-[2-(4-{[N-(4-ethylphenyl)carbamoyloxy]methyl}-4-{N-[(2-fluorophenyl)methyl]carbamoyl}piperidyl)-2-oxoethyl]carboxamide] — 4.3-fold lower, 3770 nM
- CCc1ccc(NC(=O)OCC2(C(=O)NCc3ccccc3C)CCN(C(=O)CNC(=O)OC(C)(C)C)CC2)cc1 [(tert-butoxy)-N-[2-(4-{[N-(4-ethylphenyl)carbamoyloxy]methyl}-4-{N-[(2-methylphenyl)methyl]carbamoyl}piperidyl)-2-oxoethyl]carboxamide] — 17-fold lower, 975 nM
- CCc1ccc(NC(=O)OCCN(CCN(C)C(=O)OC(C)(C)C)C(=O)NCc2ccccc2Cl)cc1 [(tert-butoxy)-N-[2-({[(2-chlorophenyl)methyl]amino}-N-{2-[N-(4-ethylphenyl)carbamoyloxy]ethyl}carbonylamino)ethyl]-N-methylcarboxamide] — within 1.5-fold, 18200 nM
- CCc1ccc(NC(=O)OCC2(C(=O)NCc3ccccc3Cl)CCN(C(=O)CCCNC(=O)OC(C)(C)C)CC2)cc1 [(tert-butoxy)-N-[4-(4-{N-[(2-chlorophenyl)methyl]carbamoyl}-4-{[N-(4-ethylphenyl)carbamoyloxy]methyl}piperidyl)-4-oxobutyl]carboxamide] — 34-fold lower, 481 nM
- CCc1ccc(NC(=O)OCC2(C(=O)NCc3ccccn3)CCN(C(=O)CN)CC2)cc1 [({1-(2-aminoacetyl)-4-[N-(2-pyridylmethyl)carbamoyl](4-piperidyl)}methoxy)-N-(4-ethylphenyl)carboxamide] — 2.2-fold lower, 7220 nM
- CCc1ccc(NC(=O)OCC2(C(=O)NCc3ncc[nH]3)CCN(C(=O)CN)CC2)cc1 [({1-(2-aminoacetyl)-4-[N-(imidazol-2-ylmethyl)carbamoyl](4-piperidyl)}methoxy)-N-(4-ethylphenyl)carboxamide] — within 1.5-fold, 18500 nM
- CCc1ccc(NC(=O)OCC2(C(=O)NCc3cccc4ccccc34)CCN(C(=O)CN)CC2)cc1 [({1-(2-aminoacetyl)-4-[N-(naphthylmethyl)carbamoyl](4-piperidyl)}methoxy)-N-(4-ethylphenyl)carboxamide] — 37-fold lower, 439 nM
- CCc1ccc(NC(=O)OCC2(C(=O)NCc3ccccc3Cl)CCN(C(=O)NCCN)CC2)cc1 [N-(2-aminoethyl)(4-{N-[(2-chlorophenyl)methyl]carbamoyl}-4-{[N-(4-ethylphenyl)carbamoyloxy]methyl}piperidyl)carboxamide] — 100-fold lower, 159 nM
